The values that follow come from patent US6825233B2, “Compounds having retinoid-like activity” (Bristol-Myers Squibb Company, priority 2001, dated 2004).

Test [1] concerns the target T1, RARα (Homo sapiens, UniProt P10276).
T1 construct: made in house; host or cells: E. coli BL21 (DE3)
T1 sequence (P10276 183-417 limits assumed): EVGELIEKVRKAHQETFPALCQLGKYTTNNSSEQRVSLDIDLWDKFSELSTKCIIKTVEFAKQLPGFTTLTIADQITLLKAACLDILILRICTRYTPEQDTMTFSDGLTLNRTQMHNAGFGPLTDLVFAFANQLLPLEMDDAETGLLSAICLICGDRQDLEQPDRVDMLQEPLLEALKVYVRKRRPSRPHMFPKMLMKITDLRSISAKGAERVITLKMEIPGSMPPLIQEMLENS
Kind of test: Competition binding assay using Yttrium SPA beads, RARα.

Test [2] deals with T2, RARβ (Homo sapiens, UniProt P10826).
T2 construct: made in house; host or cells: E. coli BL21 (DE3)
T2 sequence (P10826 183-417 limits assumed): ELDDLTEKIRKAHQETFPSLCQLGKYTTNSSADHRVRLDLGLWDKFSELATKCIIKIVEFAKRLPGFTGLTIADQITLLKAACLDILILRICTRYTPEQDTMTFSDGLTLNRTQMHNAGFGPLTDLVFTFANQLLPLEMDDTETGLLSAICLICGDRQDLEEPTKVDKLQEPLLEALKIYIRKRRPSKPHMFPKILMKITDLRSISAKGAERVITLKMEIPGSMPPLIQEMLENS
Kind of test: Competition binding assay using Yttrium SPA beads, RARβ.

Test [3] has as its target T3, RARγ (Homo sapiens, UniProt P13631).
T3 construct: made in house; host or cells: E. coli BL21 (DE3)
T3 sequence (P13631 185-419 limits assumed): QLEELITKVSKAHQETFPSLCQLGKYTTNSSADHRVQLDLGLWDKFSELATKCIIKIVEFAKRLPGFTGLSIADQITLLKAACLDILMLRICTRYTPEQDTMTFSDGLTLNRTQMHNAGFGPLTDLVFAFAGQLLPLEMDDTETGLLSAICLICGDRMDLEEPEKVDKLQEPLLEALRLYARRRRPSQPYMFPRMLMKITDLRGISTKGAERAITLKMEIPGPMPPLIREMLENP
Kind of test: Competition binding assay using Yttrium SPA beads, RARγ.

The target of test [4] is T4, GAL-RARα (Homo sapiens, UniProt P10276).
T4 construct: expressed in transfected cells
T4 sequence (P10276 183-417 limits assumed): T1 sequence (P10276 183-417 limits assumed)
Kind of test: Transactivation assay, HeLa cells with GAL-RARα and (17 mer)x5-Glob-Luc reporter. It counts as cell-based. Particulars: stable HeLa cell line, luciferase reporter, 24 hours. (Reporter assays use an easily measured gene product as a stand-in for the process of interest.)

In test [5] the target is T5, GAL-RARβ (Homo sapiens, UniProt P10826).
T5 construct: expressed in transfected cells
T5 sequence (P10826 183-417 limits assumed): T2 sequence (P10826 183-417 limits assumed)
Kind of test: Transactivation assay, HeLa cells with GAL-RARβ and (17 mer)x5-Glob-Luc reporter. In kind it is cell-based. The settings on record: stable HeLa cell line, luciferase reporter, 24 hours.

The target in test [6] is T6, GAL-RARγ (Homo sapiens, UniProt P13631).
T6 construct: expressed in transfected cells
T6 sequence (P13631 185-419 limits assumed): T3 sequence (P13631 185-419 limits assumed)
Kind of test: Transactivation assay, HeLa cells with GAL-RARγ and (17 mer)x5-Glob-Luc reporter. It counts as cell-based. Particulars: stable HeLa cell line, luciferase reporter, 24 hours.

The subject of test [7] is T47D. Kind of test: Growth assay, [3H]-thymidine incorporation, T47D. In kind it is cell-based. Particulars: Homo sapiens, T47D cells, 3 or 6 days incubation, read-out: Cell Growth Inhibition (IC50, nM) T47D. On the procedure: (§1) Principle of the assay: The proliferation of the cells was measured by the incorporation of [^3H]-Thymidine in the DNA of dividing cells.
(§2) Protocol: The number of cells which was plated has been primarily defined to avoid the cells reaching confluence before the end of the experiment duration (T47D & HT3, 750 cells/well; H3396, 200 cells/well of 96 well plates). The first day, the cells were plated in 96 well plates and incubated overnight at 37° C. (in […]; CO2, 5%), allowing the cells adhering to the support. The next day, the compounds were added to the cells and incubated for 3 or 6 days (note: for the 6-day incubation, the medium was replaced at Day3). At the end of the treatment, 10 μl of [^3H]-thymidine (final concentration of 0.4 μCi/well) were added for 4 hours at 37° C., the medium was finally removed, the cells trypsinized and harvested under vacuum on GF/B glass fiber filters. After 3 washes with distilled water, the filter were dried and counted in a scintillation counter after adding 50 μl of Microscint (Packard) to each filter. The percentage of growth inhibition was calculated by using DMSO as reference, which is the vehicle of the compounds. Growth inhibition is reported as IC50's in nM
For orientation: Dividing cells build labelled thymidine or BrdU into new DNA.

Test [8] relates to HT3. Kind of test: Growth assay, [3H]-thymidine incorporation, HT3. In kind it is cell-based. The settings on record: Homo sapiens. On the procedure:
as §1, §2

[9] abbreviates: HT-3, HT3 cells, [3H]-thymidine incorporation, 3 or 6 days incubation, read-out: Cell Growth Inhibition (IC50, nM) HT3.

Like-named read-outs stand apart in the source and are kept apart here. Some results are limits rather than exact numbers.

Regarding `CC1(C)Cc2ccc(O)cc2-c2cc(/C=C/c3ccc(C(=O)O)cc3)ccc21` [Compound 8], the figures for the Kd in test [1], in test [2] and in test [3] were 8.3 nM, 18.6 nM and 52.8 nM, respectively. Further, the figures for the EC50 in test [4], in test [5] and in test [6] were 13.5 nM, 1.76 nM and 47 nM, respectively. Also, the half-inhibitory concentration (IC50) in test [7] was determined as 4.8 nM; in test [8] (setting [9]) it was 1160 nM.

Regarding `COc1ccc2c(c1)-c1cc(/C=C/c3ccc(C(=O)O)cc3)ccc1C(C)(C)C2` [Compound 10], the Kd in test [1] is 1.1 nM; in test [2], 1.6 nM; in test [3], 10.6 nM. Moreover, the figures for the 50% effective concentration (EC50) in test [4], in test [5] and in test [6] were 0.02 nM, 0.005 nM and 1.9 nM, respectively. The IC50 in test [7] and in test [8] (setting [9]) was less than 0.01 nM in each case.

Consider `CC1=C(/C=C/C(C)=C/C=C/C(C)=C/C(=O)O)C(C)(C)CCC1` [Retinoic acid, reference compound], for which the IC50 in test [7] amounted to 6.5 nM; in test [8] (HT-3, read-out: Cell Growth Inhibition (IC50, nM) HT3) it was 1 nM.

The term Kd denotes a measure of binding affinity in units of concentration. The low end stands for tighter binding, the high end for weaker binding. One may read the EC50 as the midpoint of the concentration-response curve. As a reminder, the IC50 is the midpoint of a concentration-inhibition curve.
